Laboratory results as given in patent US11980625B2, “Ganaxolone for use in treating tuberous sclerosis complex” (Marinus Pharmaceuticals, Inc., priority 2019, dated 2024).

Tests used:
[1] = system: BTBR mouse model of autism; settings: in vivo; cited from earlier work
[2] = system: individuals with a confirmed PCDH19 mutation (PCDH19-related epilepsy); assay: Open-label study in individuals with PCDH19 mutation, seizure frequency and Allo-S biomarker; type: in vivo, human
Method: FIG. 1 depicts baseline endogenous allopregnenolone-sulfate (“Allo-S”) levels in female patients with PCDH19-related epilepsy stratified by responder vs. non-responder. When stratifying patients with allopregnanolone-sulfate (Allo-S) levels <2.5 ng mL-1, a 50% median reduction in seizure frequency (n=7) compared to baseline was observed. This analysis was conducted retrospectively in a small, open label cohort.
Individuals (n=11) with a confirmed PCDH19 mutation and minimum seizure burden were enrolled between May 2015 and November 2015 at six centers in the U.S. and Italy. Seizure frequency change (%) was assessed as the primary endpoint and a responder was defined as having a 25% or greater decrease in seizure rate. Plasma neurosteroid levels were quantified using a previously published GC/MS method (doi:10.1016/50028-3908(99)00149-5). In two cases, baseline neurosteroid levels were not measured.

[3] = molecular target: human ether-a-go-go related gene (hERG) receptor (Homo sapiens, UniProt Q12809); assay: hERG interaction; settings: measured concentration of 70 nM (n=2)
Sequence of human ether-a-go-go related gene (hERG) receptor (Q12809 whole entry): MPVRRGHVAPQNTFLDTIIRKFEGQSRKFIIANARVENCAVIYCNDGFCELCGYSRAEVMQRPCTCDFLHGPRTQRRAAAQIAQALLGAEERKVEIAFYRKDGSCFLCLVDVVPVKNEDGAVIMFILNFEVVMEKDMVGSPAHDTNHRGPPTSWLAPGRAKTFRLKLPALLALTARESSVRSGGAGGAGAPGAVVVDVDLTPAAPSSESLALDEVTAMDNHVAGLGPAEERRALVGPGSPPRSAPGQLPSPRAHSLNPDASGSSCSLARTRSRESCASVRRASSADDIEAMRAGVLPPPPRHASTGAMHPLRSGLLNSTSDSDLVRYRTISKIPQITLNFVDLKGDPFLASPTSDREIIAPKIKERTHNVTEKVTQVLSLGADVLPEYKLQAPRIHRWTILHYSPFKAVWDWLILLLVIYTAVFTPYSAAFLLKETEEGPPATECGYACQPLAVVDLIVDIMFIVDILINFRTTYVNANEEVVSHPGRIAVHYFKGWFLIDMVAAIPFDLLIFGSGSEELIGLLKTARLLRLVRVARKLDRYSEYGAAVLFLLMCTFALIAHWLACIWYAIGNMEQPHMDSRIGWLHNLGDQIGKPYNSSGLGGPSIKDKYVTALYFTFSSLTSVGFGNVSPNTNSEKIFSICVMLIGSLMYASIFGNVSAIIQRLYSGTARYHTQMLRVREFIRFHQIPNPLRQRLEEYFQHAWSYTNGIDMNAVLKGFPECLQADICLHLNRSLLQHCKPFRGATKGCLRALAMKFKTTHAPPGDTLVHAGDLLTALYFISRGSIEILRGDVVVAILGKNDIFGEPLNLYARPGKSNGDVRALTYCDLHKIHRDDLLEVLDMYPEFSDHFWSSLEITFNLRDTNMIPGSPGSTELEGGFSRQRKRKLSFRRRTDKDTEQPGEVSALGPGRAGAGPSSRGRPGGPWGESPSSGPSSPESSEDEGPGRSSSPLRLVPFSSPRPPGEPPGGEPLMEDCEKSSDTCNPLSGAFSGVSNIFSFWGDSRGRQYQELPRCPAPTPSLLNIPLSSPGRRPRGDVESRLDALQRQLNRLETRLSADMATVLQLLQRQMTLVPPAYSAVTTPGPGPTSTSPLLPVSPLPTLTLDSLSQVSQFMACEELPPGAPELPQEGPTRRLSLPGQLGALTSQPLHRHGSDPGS

female rats = assay: Pulmonary effects in female rats; type: in vivo; settings: doses up to 40 mg/kg
Description: There was a physiologically normal shortening of the PR and QT interval in response to the higher heart rate. There was no effect on QRS duration or QTc interval.

[4] = In vitro haemolysis and plasma compatibility; design: species or system human
Method: When given IV to rats and dogs, the main dose limiting toxicity finding was sedation. The no observed adverse effect level (NOAEL) after IV dosing in rats for 14 days was established at 42 mg/kg/day for males and 30 mg/kg/day for females. The NOAEL in dog after administration of ganaxolone by IV bolus followed by continuous IV infusion for 28 days was 7.20 mg/kg/day, which corresponded to a steady-state concentration of approximately 330 ng/mL and 333 ng/mL. There were no findings in a local tolerance study in rabbits.

Compound: CC(=O)[C@H]1CC[C@H]2[C@@H]3CC[C@H]4C[C@](C)(O)CC[C@]4(C)[C@H]3CC[C@]12C [Ganaxolone, 3α-hydroxy-3β-methyl-5α-pregnan-20-one]
- sociability [1]: improved sociability
- median decrease in 28-day seizure frequency (all seizure types) from baseline ([2]; all-comers (n=11)): 26%
- seizure frequency at 6 months compared to baseline ([2]; biomarker-negative (high Allo-S) group, p=0.25, Wilcoxon): did not improve
- median % change seizure rate ([2]; biomarker-negative (n=4, Allo-S >2,500 pg mL-1)): 247%
- median % change seizure rate ([2]; biomarker-positive (n=7, Allo-S<2,500 pg mL-1)): −53.9%
- seizure frequency at 6 months compared to baseline ([2]; biomarker-positive group, p=0.02, Wilcoxon): significantly improved
- median reduction in seizure frequency compared to baseline ([2]; patients with Allo-S levels <2.5 ng mL-1 (n=7), FIG. 1): 50%
- interaction with hERG receptor [3]: did not interact
- pulmonary effects (female rats): No pulmonary effects
- compatibility with human plasma [4]: compatible with human plasma
- haemolysis [4]: did not cause haemolysis
